Measurements as given in patent US11173146B2, “Selective activators of the intermediate conductance CA2+activated K+ channel KCa3.1 and their methods of use” (The Regents of the University of California, priority 2014, dated 2021).

Tests used:
[1] = biological target: T1, mKV3.1 (Mus musculus, UniProt P15388); test: KV3.1 current inhibition (L929 cells); format: cell-based
T1 construct: expressed in transfected cells; host or cells: L929
Description: (§1) Cells, Cell lines and Clones. HEK-293 cells stably expressing hKCa2.1, rKCa2.2 and hKCa3.1 were obtained from Khaled Houamed (University of Chicago, Ill.) in 2002 and have been maintained in the Wulff laboratory at the University of California since then. The cloning of hKCa2.3 (19 CAG repeats) and hKCa3.1 has been previously described (Wulff et al., 2000). The hKCa2.3 clone was later stably expressed in COS-7 cells at Aurora Biosciences Corp., San Diego, Calif. […]
(§2) Electrophysiology. […] For manual experiments COS-7, HEK-293 or L929 cells were trypsinized, plated onto poly-L-lysine coated coverslips and typically recorded from between 20 min and 4 h after plating. […] Free Ca^2+ concentrations were calculated with MaxChelator assuming a temperature of 25° C., a pH of 7.2 and an ionic strength of 160 mM. To reduce contaminating currents from native chloride channels in COS-7 cells, KCa2.3 currents were recorded with an internal pipette solution containing (in mM): 145 K^+ aspartate, 2 MgCl2, 10 HEPES, 10 EGTA and 7.4 CaCl2 (500 nM free Ca^2+), pH 7.2, 290-310 mOsm. […] KV2.1, Kv1.3, and KV3.1 currents were recorded in normal Ringer solution with a Ca^2+-free KF-based pipette solution as previously described (Schmitz et al., 2005). HERG (KV11.1) currents were recorded with a 2-step pulse from −80 mV first to 20 mV for 1 sec and then to −50 mV for 1 sec. […]

[2] = biological target: T2, KV11.1 (hERG) (Homo sapiens, UniProt Q12809); test: KV11.1 (hERG) current inhibition (HEK-293); format: cell-based
T2 construct: host or cells: HEK-293
Description: as §1, §2

T1 sequence (P15388 whole entry): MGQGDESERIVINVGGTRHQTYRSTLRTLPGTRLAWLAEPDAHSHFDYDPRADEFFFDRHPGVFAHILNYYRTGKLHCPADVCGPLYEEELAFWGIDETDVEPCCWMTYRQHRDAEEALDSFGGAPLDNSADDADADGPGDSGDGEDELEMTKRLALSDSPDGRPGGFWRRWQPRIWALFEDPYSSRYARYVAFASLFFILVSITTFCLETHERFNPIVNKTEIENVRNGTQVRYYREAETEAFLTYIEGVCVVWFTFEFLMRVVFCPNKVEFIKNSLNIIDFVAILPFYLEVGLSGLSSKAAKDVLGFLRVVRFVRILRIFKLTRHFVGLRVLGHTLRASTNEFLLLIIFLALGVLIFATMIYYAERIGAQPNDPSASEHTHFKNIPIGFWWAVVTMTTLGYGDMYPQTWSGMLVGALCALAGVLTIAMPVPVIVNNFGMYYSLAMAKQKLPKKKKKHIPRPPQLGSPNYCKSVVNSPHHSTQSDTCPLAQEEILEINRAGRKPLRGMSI
T2 sequence (Q12809 whole entry): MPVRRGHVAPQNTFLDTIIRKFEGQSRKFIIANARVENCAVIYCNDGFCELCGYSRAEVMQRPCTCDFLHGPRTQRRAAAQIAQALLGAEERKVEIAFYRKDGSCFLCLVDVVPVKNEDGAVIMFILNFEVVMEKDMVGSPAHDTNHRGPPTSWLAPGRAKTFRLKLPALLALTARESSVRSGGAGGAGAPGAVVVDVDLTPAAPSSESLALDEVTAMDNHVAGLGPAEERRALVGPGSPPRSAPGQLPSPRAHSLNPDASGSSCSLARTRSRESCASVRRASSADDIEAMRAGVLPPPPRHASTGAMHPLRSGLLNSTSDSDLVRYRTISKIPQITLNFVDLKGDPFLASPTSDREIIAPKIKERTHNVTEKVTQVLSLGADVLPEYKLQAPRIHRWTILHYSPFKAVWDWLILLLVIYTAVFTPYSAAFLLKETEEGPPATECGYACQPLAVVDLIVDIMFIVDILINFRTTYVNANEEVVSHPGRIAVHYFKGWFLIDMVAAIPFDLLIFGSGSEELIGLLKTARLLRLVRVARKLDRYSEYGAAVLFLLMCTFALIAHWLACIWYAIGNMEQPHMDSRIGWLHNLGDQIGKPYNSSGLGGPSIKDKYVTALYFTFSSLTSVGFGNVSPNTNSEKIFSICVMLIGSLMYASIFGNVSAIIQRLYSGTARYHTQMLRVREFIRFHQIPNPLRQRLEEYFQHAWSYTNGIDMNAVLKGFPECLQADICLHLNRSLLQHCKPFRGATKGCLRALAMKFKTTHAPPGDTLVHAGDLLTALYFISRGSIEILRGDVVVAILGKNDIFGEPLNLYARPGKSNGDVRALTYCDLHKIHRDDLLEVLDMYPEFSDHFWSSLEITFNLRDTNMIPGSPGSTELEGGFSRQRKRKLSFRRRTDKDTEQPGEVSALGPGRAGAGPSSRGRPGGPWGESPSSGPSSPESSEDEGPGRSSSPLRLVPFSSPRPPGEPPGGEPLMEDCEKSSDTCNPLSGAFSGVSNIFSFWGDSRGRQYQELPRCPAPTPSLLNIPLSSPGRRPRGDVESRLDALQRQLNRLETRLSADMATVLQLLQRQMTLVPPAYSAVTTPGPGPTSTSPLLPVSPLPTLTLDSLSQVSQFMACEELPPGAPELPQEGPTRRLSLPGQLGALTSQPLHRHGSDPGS

SMILES | inhibition at 50 µM ([1]; at 50 μM) [%] | KV11.1 (hERG) % current inhibition ([2]; at 50 μM) [%] | inhibition at 25 µM ([1]; at 25 μM) [%] | KV11.1 (hERG) % current inhibition ([2]; at 25 μM) [%]
Cc1cc2nc(N)oc2c2ccccc12 [SKA-121, 5-Methylnaphtho[2,1-d]oxazol-2-amine] | 46.3 ± 16.5 | 16.7 ± 9.7 |  | 
Cc1cc2sc(N)nc2c2ccccc12 [SKA-111, 5-methylnaphtho[1,2-d]thiazol-2-amine] |  |  | 32.9 ± 1.3 | 10.1 ± 7.7
